The CheMixHub viscosity set
± gives the uncertainty stated by the source.

Assay: xn = mol fraction of the nth substance listed

CCOCCO + C1COCCO1
viscosity [mPa·s], 101.33 kPa
Settings	x1 = 0.1009	x1 = 0.2023	x1 = 0.3051	x1 = 0.4014	x1 = 0.499	x1 = 0.602	x1 = 0.7004	x1 = 0.8031	x1 = 0.8976
298.15 K	1.293 ± 0.009	1.299 ± 0.009	1.324 ± 0.009	1.367 ± 0.009	1.424 ± 0.009	1.511 ± 0.01	1.6 ± 0.01	1.733 ± 0.011	1.844 ± 0.011
303.15 K	1.069 ± 0.007	1.066 ± 0.007	1.085 ± 0.007	1.119 ± 0.007	1.162 ± 0.008	1.228 ± 0.008	1.299 ± 0.008	1.4 ± 0.009	1.487 ± 0.009
308.15 K	0.982 ± 0.007	0.992 ± 0.007	1 ± 0.007	1.028 ± 0.007	1.07 ± 0.007	1.12 ± 0.007	1.183 ± 0.008	1.268 ± 0.008	1.344 ± 0.009

CC(C)CCO + C1COCO1
viscosity [mPa·s], 101 kPa
Settings	x2 = 0.1168	x2 = 0.2293	x2 = 0.3377	x2 = 0.4424	x2 = 0.5434	x2 = 0.6409	x2 = 0.7352	x2 = 0.8264	x2 = 0.9146
298.15 K	3.017 ± 0.066	2.523 ± 0.064	2.174 ± 0.063	1.884 ± 0.062	1.366 ± 0.061	0.9079 ± 0.06	0.8074 ± 0.06	0.7367 ± 0.06	0.6474 ± 0.06
303.15 K	2.3 ± 0.025	1.806 ± 0.023	1.458 ± 0.022	1.167 ± 0.021	0.9949 ± 0.021	0.8818 ± 0.021	0.7812 ± 0.021	0.7104 ± 0.021	0.6212 ± 0.02

CCOCCO + C1COCO1
298.15 K, 101 kPa
Settings	viscosity [mPa·s]
x2 = 0.1191	1.605 ± 0.012
x2 = 0.2332	1.379 ± 0.011
x2 = 0.3427	1.187 ± 0.0094
x2 = 0.4478	1.03 ± 0.0083
x2 = 0.5488	0.9124 ± 0.0074
x2 = 0.646	0.8144 ± 0.0068
x2 = 0.7395	0.7365 ± 0.0062
x2 = 0.8295	0.6706 ± 0.0057
x2 = 0.9163	0.6129 ± 0.0053
